These results are taken from ChEMBL document CHEMBL1148644, “Human PEPT1 pharmacophore distinguishes between dipeptide transport and binding” (J Med Chem, 2006).

Where a SMILES comes first, the peptide text is derived from it. [ ]: non-standard residue; d: D form. Sar = CNCC(=O)O

One assay addresses T1, Solute carrier family 15 member 1 (Homo sapiens, UniProt P46059).
T1 sequence (P46059 whole entry): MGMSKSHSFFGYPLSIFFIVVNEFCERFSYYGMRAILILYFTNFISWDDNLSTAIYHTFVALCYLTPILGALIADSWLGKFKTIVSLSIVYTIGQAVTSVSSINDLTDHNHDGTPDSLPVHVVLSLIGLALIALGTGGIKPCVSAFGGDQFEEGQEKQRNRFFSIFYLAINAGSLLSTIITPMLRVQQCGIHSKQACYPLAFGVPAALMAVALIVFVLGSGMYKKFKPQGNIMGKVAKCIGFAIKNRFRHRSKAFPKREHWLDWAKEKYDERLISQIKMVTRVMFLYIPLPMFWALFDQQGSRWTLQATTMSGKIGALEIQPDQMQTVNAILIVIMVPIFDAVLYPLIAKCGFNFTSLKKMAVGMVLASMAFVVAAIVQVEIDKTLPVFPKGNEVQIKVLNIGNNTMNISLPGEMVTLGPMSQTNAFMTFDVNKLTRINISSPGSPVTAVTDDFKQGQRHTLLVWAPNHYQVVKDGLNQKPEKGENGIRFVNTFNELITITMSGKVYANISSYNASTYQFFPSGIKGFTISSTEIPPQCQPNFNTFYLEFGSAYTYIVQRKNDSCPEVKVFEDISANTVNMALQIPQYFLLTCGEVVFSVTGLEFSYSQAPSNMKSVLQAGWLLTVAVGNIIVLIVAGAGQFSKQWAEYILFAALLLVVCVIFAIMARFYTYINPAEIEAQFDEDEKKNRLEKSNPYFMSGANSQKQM
The assay can be described thus: Activation of human PEPT1 expressed in MDCK cells. The assay is classed as functional, cell-based.
Settings: not given
Take `N[C@@H](Cc1c[nH]cn1)C(=O)N[C@@H](Cc1c[nH]cn1)C(=O)O`: it took 370 µM to reach a half-maximal effect (EC50).

Regarding `NCC(=O)N[C@@H](Cc1ccc(O)cc1)C(=O)O` (H-Gly-Tyr-OH), it took 140 µM to reach a half-maximal effect (EC50). Against the preceding compound, the EC50 is about 2.6-fold lower.

Take `CC(C)[C@H](N)C(=O)N[C@@H](Cc1c[nH]c2ccccc12)C(=O)O` [VALYLTRYPTOPHAN] (H-Val-Trp-OH): the EC50 (usually the concentration that produces a half-maximal response) was found to be 40 µM.

In turn, `C[C@H](N)C(=O)N[C@@H](Cc1ccccc1)C(=O)O` came in with a concentration giving a half-maximal response (EC50) of 80 µM.

The compound `NCC(=O)N[C@@H](CCC(=O)O)C(=O)O` (H-Gly-Glu-OH) had an EC50 of 1100 µM.

Regarding `NCC(=O)N[C@@H](CC(=O)O)C(=O)O` (H-Gly-Asp-OH), the half-maximal effective concentration (EC50) was found to be 550 µM.

As for `NCC(=O)NCC(=O)NCC(=O)O`, the concentration for a half-maximal effect (EC50) turned out to be 580 µM.

For `NC(=O)CC[C@H](NC(=O)[C@@H](N)CCC(N)=O)C(=O)O` (H-Gln-Gln-OH), the EC50 worked out at 100 µM.

`NCCCC[C@H](NC(=O)[C@@H](N)CCC(=O)O)C(=O)O` (H-Glu-Lys-OH): the EC50 came to 310 µM. Compared with the last compound, the EC50 is about 3.1-fold higher.

The compound `NC(=O)CC[C@H](N)C(=O)N[C@@H](CCC(=O)O)C(=O)O` (H-Gln-Glu-OH) registered an EC50 of 420 µM.

For the compound `NC(=O)[C@H](Cc1ccc(O)cc1)NC(=O)[C@@H](N)Cc1ccccc1` (H-Phe-Tyr-NH2), it took 30 µM to reach a half-maximal effect (EC50).

As to `CN(CC(=O)O)C(=O)CN` [GLYCYLSARCOSINE] (H-Gly-[Sar]-OH), the concentration giving a half-maximal response (EC50) came out at 540 µM.

A further assay concerns the target T1, Solute carrier family 15 member 1. The assay can be described thus: Binding affinity to human PEPT1 assessed as inhibition of [14C]Gly-Sar uptake in MDCK cells. The assay is classed as functional, cell-based. The following applies: read-out: IC50.
On to `N[C@@H](Cc1c[nH]cn1)C(=O)N[C@@H](Cc1c[nH]cn1)C(=O)O`, for which the IC50 (usually the concentration that gives 50% inhibition) came to 400 µM.

In the case of `NCC(=O)N[C@@H](Cc1ccc(O)cc1)C(=O)O` (H-Gly-Tyr-OH), the 50% inhibitory concentration (IC50) was 120 µM.

For `CC(C)[C@H](N)C(=O)N[C@@H](Cc1c[nH]c2ccccc12)C(=O)O` [VALYLTRYPTOPHAN] (H-Val-Trp-OH), the IC50 amounted to 100 µM.

On to `C[C@H](N)C(=O)N[C@@H](Cc1ccccc1)C(=O)O`, for which the IC50 was determined as 70 µM.

With `NCC(=O)N[C@@H](CCC(=O)O)C(=O)O` (H-Gly-Glu-OH), the IC50 stood at 650 µM.

`NCC(=O)N[C@@H](CC(=O)O)C(=O)O` (H-Gly-Asp-OH): the half-inhibitory concentration (IC50) was 380 µM.

With `NCC(=O)NCC(=O)NCC(=O)O`, the concentration for half-maximal inhibition (IC50) amounted to 1070 µM.

Consider `NC(=O)CC[C@H](NC(=O)[C@@H](N)CCC(N)=O)C(=O)O` (H-Gln-Gln-OH), for which the IC50 was determined as 150 µM.

In the case of `NCCCC[C@H](NC(=O)[C@@H](N)CCC(=O)O)C(=O)O` (H-Glu-Lys-OH), the IC50 is 720 µM.

For the compound `NC(=O)CC[C@H](N)C(=O)N[C@@H](CCC(=O)O)C(=O)O` (H-Gln-Glu-OH), the half-inhibitory concentration (IC50) was found to be 510 µM.

As to `NC(=O)[C@H](Cc1ccc(O)cc1)NC(=O)[C@@H](N)Cc1ccccc1` (H-Phe-Tyr-NH2), the IC50 is 20 µM.

As for `CN(CC(=O)O)C(=O)CN` [GLYCYLSARCOSINE] (H-Gly-[Sar]-OH), the IC50 amounted to 1160 µM.
